Test results from PMC3946900 (Pharmaceutical research, 2013).
Read-outs that look alike come from different tables or passages of the source.

What was measured:
[1] = system: P-gp (mdr1); conditions: cited from earlier work
[2] = biological target: P-glycoprotein (P-gp, ABCB1; MDR1) (Homo sapiens, UniProt P08183); conditions: MDCK-MDR1 cells with and without CsA
[3] = system: P-gp; assay: Compartmental models of apical efflux fit to permeability data
[4] = 5C model, asa = 1, lipid content = 10%

Chain of P-glycoprotein (P-gp, ABCB1; MDR1) (P08183 whole entry): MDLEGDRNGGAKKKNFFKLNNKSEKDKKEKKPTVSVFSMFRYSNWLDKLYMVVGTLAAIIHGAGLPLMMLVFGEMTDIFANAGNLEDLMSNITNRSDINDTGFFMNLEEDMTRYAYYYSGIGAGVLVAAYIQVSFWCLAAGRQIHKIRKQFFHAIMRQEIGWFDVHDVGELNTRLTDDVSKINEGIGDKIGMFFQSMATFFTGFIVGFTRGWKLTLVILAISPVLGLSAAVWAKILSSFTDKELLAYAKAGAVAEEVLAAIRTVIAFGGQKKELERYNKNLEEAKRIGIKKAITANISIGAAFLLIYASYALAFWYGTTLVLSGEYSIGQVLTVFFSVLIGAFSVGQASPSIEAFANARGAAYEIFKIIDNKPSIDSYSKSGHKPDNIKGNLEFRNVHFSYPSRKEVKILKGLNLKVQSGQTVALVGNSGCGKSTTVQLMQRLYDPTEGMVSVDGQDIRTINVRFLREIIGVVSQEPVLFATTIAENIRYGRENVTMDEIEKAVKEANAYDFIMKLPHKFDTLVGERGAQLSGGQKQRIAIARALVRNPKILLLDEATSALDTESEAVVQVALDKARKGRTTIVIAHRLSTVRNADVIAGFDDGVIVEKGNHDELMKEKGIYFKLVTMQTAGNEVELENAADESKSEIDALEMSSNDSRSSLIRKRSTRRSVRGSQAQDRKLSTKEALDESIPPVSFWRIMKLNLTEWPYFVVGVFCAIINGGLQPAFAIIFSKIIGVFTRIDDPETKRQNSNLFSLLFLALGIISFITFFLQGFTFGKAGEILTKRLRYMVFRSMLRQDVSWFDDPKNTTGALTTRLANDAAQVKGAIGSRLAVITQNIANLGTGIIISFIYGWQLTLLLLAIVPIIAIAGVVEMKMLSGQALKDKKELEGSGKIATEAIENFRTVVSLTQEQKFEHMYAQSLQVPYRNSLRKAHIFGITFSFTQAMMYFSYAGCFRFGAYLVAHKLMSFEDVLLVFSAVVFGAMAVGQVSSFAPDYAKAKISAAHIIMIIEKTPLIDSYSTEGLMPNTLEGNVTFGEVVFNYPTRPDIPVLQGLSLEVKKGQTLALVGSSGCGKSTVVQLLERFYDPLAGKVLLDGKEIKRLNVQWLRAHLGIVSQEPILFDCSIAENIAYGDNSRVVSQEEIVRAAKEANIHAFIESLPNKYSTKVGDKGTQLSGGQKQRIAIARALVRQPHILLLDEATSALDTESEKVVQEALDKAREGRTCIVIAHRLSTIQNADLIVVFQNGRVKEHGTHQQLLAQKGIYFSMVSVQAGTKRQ

| SMILES | Brain Conc. Ratio mdr1(−/−)/mdr1(+/+) ([1]; mice, brain) | Liver Conc. Ratio mdr1(−/−)/mdr1(+/+) ([1]; mice, liver) | other results |
| --- | --- | --- | --- |
| Cc1nnc2n1-c1sc(CCC(=O)N3CCOCC3)cc1C(c1ccccc1Cl)=NC2 [Apafant] | 73.6 | 4.5 | – |
| CN(C(=O)C(c1ccccc1)c1ccccc1)[C@H](CN1CC[C@H](O)C1)c1ccccc1 [Asimadoline] | 9.1 | 1.1 | – |
| CN(C)C(=O)C(CCN1CCC(O)(c2ccc(Cl)cc2)CC1)(c1ccccc1)c1ccccc1 [Loperamide] | – | – | permeability (qualitative) [2]: high permeability |
| Nc1cc(N2CCCCC2)nc(N)[n+]1[O-] [Minoxidil] | – | – | CLae (active apical efflux clearance) [3]: 0.021 µL/min |
| Cc1c(O)cccc1C(=O)N[C@@H](CSc1ccccc1)[C@H](O)CN1C[C@H]2CCCC[C@H]2C[C@H]1C(=O)NC(C)(C)C [Nelfinavir] | 16.1 | 3.0 | – |
| Cc1nccn1CC1CCc2c(c3ccccc3n2C)C1=O (stereo not shown) [Ondansetron] | 4.0 | 0.9 | – |
| O=C(O)C[C@H](O)C[C@H](O)/C=C/c1c(C2CC2)nc2ccccc2c1-c1ccc(F)cc1 [Pitavastatin] | 1.3 | 0.88 | CLae (active apical efflux clearance) [3, 4]: 0.030 µL/min; CLi (diffusion clearance into an explicit membrane compartment) [3, 4]: 3.5 µL/min |
| C/C=C/C[C@@H](C)C(=O)[C@H]1C(=O)N[C@@H](C(C)C)C(=O)N(C)CC(=O)N(C)[C@@H](CC(C)C)C(=O)N[C@@H](C(C)C)C(=O)N(C)[C@@H](CC(C)C)C(=O)N[C@@H](C)C(=O)N[C@H](C)C(=O)N(C)[C@@H](CC(C)C)C(=O)N(C)[C@@H](CC(C)C)C(=O)N(C)[C@@H](C(C)C)C(=O)N1C [SDZ PSC 833] | 2.1 | 0.9 | – |
| CO[C@H]1C[C@H](O[C@@H]2/C(C)=C/C[C@@H]3C[C@@H](C[C@]4(CC[C@H](C)[C@@H](C5CCCCC5)O4)O3)OC(=O)[C@@H]3C=C(C)/C(=N/O)[C@H]4OC/C(=C\C=C\[C@@H]2C)[C@]43O)O[C@@H](C)[C@@H]1O [Selamectin] | – | – | Brain Conc. Ratio mdr1(−/−)/mdr1(+/+) ([1]; mouse, in vivo): 4.9; Liver Conc. Ratio mdr1(−/−)/mdr1(+/+) ([1]; mouse, in vivo): 0.5 |
| C=CC[C@@H]1/C=C(\C)C[C@H](C)C[C@H](OC)[C@H]2O[C@@](O)(C(=O)C(=O)N3CCCC[C@H]3C(=O)O[C@H](/C(C)=C/[C@@H]3CC[C@@H](O)[C@H](OC)C3)[C@H](C)[C@@H](O)CC1=O)[C@H](C)C[C@@H]2OC [Tacrolimus] | – | – | Brain Conc. Ratio mdr1(−/−)/mdr1(+/+) ([1]; mouse, in vivo): 6.0; Liver Conc. Ratio mdr1(−/−)/mdr1(+/+) ([1]; mouse, in vivo): 1.7 |
| CC[C@]1(O)C[C@@H]2CN(CCc3c([nH]c4ccccc34)[C@@](C(=O)OC)(c3cc4c(cc3OC)N(C)[C@H]3[C@@](O)(C(=O)OC)[C@H](OC(C)=O)[C@]5(CC)C=CCN6CC[C@]43[C@@H]65)C2)C1 [Vinblastine] | 22.4 | 1.8 | – |
